Test results taken from article PMC8766756, “Insights on Cancer Cell Inhibition, Subcellular Activities, and Kinase Profile of Phenylacetamides Pending 1H-Imidazol-5-One Variants” (Frontiers in Pharmacology, 2022).
Where two headings read alike, the source gives them in different places.

Legend:
[1] = test system: MCF7 breast cancer cell line; experiment: SRB cytotoxicity assay; assay type: cell-based, human; conditions: MCF7, SRB, 72 h, read-out: IC50 ± SEM MCF7
Experimental: (§1) The compounds were screened for their anticancer activities against a variety of cancer cell lines. The cytotoxic effect of the compounds was evaluated using the sulforhodamine B (SRB) cytotoxicity assay for breast cancer line (MCF7) and prostate cancer cell line (PC3) ([Vichai and Kirtikara, 2006]; [Rana et al., 2021]) and 3-(4,5-dimethylthiazol-2-yl)-2,5-diphenyl-2H-tetrazolium bromide (MTT) assay for the colon cancer (HCT116) cell lines ([El-Huneidi et al., 2020]). The CellTiter-Blue® cell viability assay was performed on the various leukemia cell lines, HL60, NB4, and KG1a cells ([Akter et al., 2019]). The IC50 values are illustrated in Table 1.
(§2) MCF7 (breast), PC3 (prostate), and HCT116 (colon) cancer cell lines were obtained from ATCC, Manassas, VA, USA. Cells were grown in Roswell Park Memorial Institute-1640 (RPMI-1640) medium (Thermo Fisher Scientific, Inc., Waltham, MA, USA), supplemented with 10% heat inactivated fetal bovine serum (FBS), 50 units/mL of penicillin, and […] of streptomycin and maintained at 37°C in a humidified atmosphere containing 5% CO2. The cells were maintained as “monolayer culture” by serial subculturing.
(§3) Exponentially growing MCF7 and PC3 cells were collected using 0.25% Trypsin-EDTA and were then seeded in 96-well plates at a density of 1,000–2,000 cells/well in 10% FBS and penicillin/streptomycin supplemented RPMI-1640 medium. After 24 h, the cells were treated with different concentrations of the test compounds and incubated for 72 h at 37°C in a humidified atmosphere containing 5% CO2. Next, the cells were fixed by trichloroacetic acid (TCA) (10% final concentration in wells) directly to the wells and incubated for 1 h at 4°C, then the cells were washed with distilled water five times to remove excess TCA, media, serum proteins, and metabolites, followed by air drying. After that, the fixed cells were stained with 0.4% SRB dissolved in 1% acetic acid for 10 min at room temperature, and excess stain was removed by quickly rinsing with 1% acetic acid. The residual acetic acid was removed completely by air drying the plates for 24 h, and the dye was solubilized with Tris buffer (pH = 7.4, 10 mM) for 5 min on a shaker at 1,600 rpm. The optical density of each well was measured spectrophotometrically at 564 nm with an ELISA microplate reader (ChroMate-4300, FL, USA). The IC50 values were calculated according to the equation for Boltzman sigmoidal concentration–response curve using the nonlinear regression fitting models (GraphPad®, Prism Version 5).

[2] = test system: PC3 prostate cancer cell line; experiment: SRB cytotoxicity assay; assay type: cell-based, human; conditions: 72 h, read-out: IC50 ± SEM PC3
Experimental: as §1, §2, §3

NB4 leukemia cell line = experiment: CellTiter-Blue cell viability assay; assay type: cell-based; conditions: Homo sapiens, NB-4, 48 h
Experimental: as §1
(§4) HL60, NB4, and KG1a were purchased from CLS Cell Line Service GmbH (Eppelheim, Germany). All cell lines were cultured in RPMI-1640 medium supplemented with 10% FBS (Thermo Fisher Scientific) and ciprofloxacin (10 μg/ml; Cipla Limited; Mumbai, India), at 37°C with 5% CO2 in a humidified incubator.
(§5) The CellTiter-Blue® Cell Viability assay was acquired from Promega Corporation (Madison, WI, USA). The cell viability assay was performed as follows: the cells (10^4/well) were incubated with a concentration gradient of the test compounds ranging from 0.01 to 100 μM, in 96-well plates for 48 h at 37°C. Subsequently, 20 µL of the CellTiter-Blue® Cell Viability reagent was added to each well and incubated for an additional 2 h for the development of fluorescence. The fluorescence emission was measured at 590 nm using the SpectraMax® i3x Multi-Mode Microplate Reader (Molecular Devices, LLC; San Jose, CA, USA.) and plotted against the drug concentrations to determine the IC50 of the test compounds.

KG1a leukemia cell line = experiment: CellTiter-Blue cell viability assay; assay type: cell-based; conditions: Homo sapiens, KG-1a, 48 h
Experimental: as §1, §4, §5

HL60 leukemia cell line = experiment: CellTiter-Blue cell viability assay; assay type: cell-based; conditions: Homo sapiens, HL-60, 48 h, read-out: IC50 ± SEM HL60
Experimental: as §1, §4, §5

[3] = Stability in human liver microsomes; assay type: in vitro ADME; conditions: 37°C, t1/2
Experimental: The clearance of KIM-161 in MLM or HLM was determined at 37°C as previously described ([Yang et al., 2007]). Both MLM and HLM were obtained from Merck KGaA (Darmstadt, Germany), Cat. No. M9441 (MLM) and M0317 (HLM). The assays were conducted in triplicate in 96-well deep polypropylene plates. KIM-161 was incubated with pooled liver microsomes from male CD-1 mice (Life Technologies, Grand Island, NY), tetrasodium NADPH and magnesium chloride for 60 min at 37°C with gentle shaking. At five time points, the reaction mixture aliquots were transferred to 96-shallow well stop plates on ice containing acetonitrile with 0.1 µM propafenone. […] The standard curves for the test compound were generated using five concentrations in triplicate that were processed as above but with zero incubation time. The stop plates were centrifuged at 2000g for 10 min, and then, the supernatant aliquots were transferred to a Waters Aquity® UPLC 700 µL 96-well sample plate with cap mat (Waters, Milford, MA). The amount of the compound remaining in the supernatant was quantified by LC/MS/MS using a Waters Xevo TQ MS (electrospray positive mode) coupled to a Waters Aquity® UPLC (BEH column, C18). Propafenone was used as the internal standard. GraphPad® Prism v.5.04 was used for nonlinear fitting of time course data to generate t1/2 values.

`COc1ccc(/C=C2\N=C(C)N(c3ccc(CC(=O)NCc4ccccc4)cc3)C2=O)cc1` [Compound 4c, (Z)-N-Benzyl-2-(4-(4-(4-methoxybenzylidene)-2-methyl-5-oxo-4,5-dihydro-1H-imidazol-1-yl)phenyl)acetamide] gave an IC50 ([1]; Homo sapiens, MCF7, 72 h) of 1140 nM, an IC50 [1] of 1140 ± 190 nM and an IC50 [2] of 2140 ± 340 nM. For the same molecule, the IC50 ([2]; Homo sapiens) was 2130 nM, the IC50 (NB4 leukemia cell line) was 275 nM and the IC50 (KG1a leukemia cell line) was 893 nM. The IC50 (HL60 leukemia cell line) was 362 ± 20 nM and the HLM stability [3] was 22.9 min.
